Test results published in PubChem BioAssay AID2060333 (Molecular Pharmacology Branch, DTP, NCI, 2025).
pIC50: −log10 of the molar value. Values joined by “and” are separate entries in the source; they are usually repeats but may differ in a detail not shown here. Equal values may be shown once.

System: 845751-090-R-J2-PDC tumor spheroid viability
Assay: Anticancer human tumor 845751-090-R-J2-PDC patient-derived head and neck squamous carcinoma cell line growth inhibition [IpAb]
Details: spheroids with HUVEC and MSC; for viability, T/C: stronger effect = lower value
Procedure, shortened: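 Spheroids of 60% malignant cells, 25% HUVEC and 15% MSC were exposed to targeted agents combined with ipatasertib or abemaciclib. Doses started at or near clinical Cmax (10 microM when unknown) and fell in half-log steps.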

[1] = curve of first compound, second compound 0.1 µM
[2] = curve of first compound, second compound 0.316 µM
[3] = curve of first compound, second compound 1 µM
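Note: spheroids exposed to compounds for 7 days before readout.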
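Throughout, for viability, T/C: CTG3D luminescence normalised so that 100% = DMSO vehicle control.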

COc1c(OCCCN2CCOCC2)ccc2c3n(c(=NC(=O)c4cnc(N)nc4)nc12)CCN3 + CC(C)NCC(C(=O)N1CCN(c2ncnc3c2C(C)CC3O)CC1)c1ccc(Cl)cc1
pIC50 [1]: 8.14 | pIC50 [2]: > 8.50 | pIC50 [3]: > 8.50 | pIC50 (curve of first compound, second compound 3.16 µM): > 8.50 | pIC50 (curve of first compound, second compound 10 µM): > 8.50 | viability, T/C (second compound 0.1 µM, first compound 0.00316 µM): 60.9% | viability, T/C (second compound 0.1 µM, first compound 0.01 µM): 46.1% | viability, T/C (second compound 0.1 µM, first compound 0.0316 µM): 32.1% | viability, T/C (second compound 0.1 µM, first compound 0.1 µM): 19.5% | viability, T/C (second compound 0.1 µM, first compound 0.316 µM): 16.5% | viability, T/C (second compound 0.1 µM, first compound 1 µM): 3.52% | viability, T/C (second compound 0.316 µM, first compound 0.00316 µM): 26.4% | viability, T/C (second compound 0.316 µM, first compound 0.01 µM): 27.3% | viability, T/C (second compound 0.316 µM, first compound 0.0316 µM): 38.4% | viability, T/C (second compound 0.316 µM, first compound 0.1 µM): 17% | viability, T/C (second compound 0.316 µM, first compound 0.316 µM): 9.83% | viability, T/C (second compound 0.316 µM, first compound 1 µM): 5.73% | viability, T/C (second compound 1 µM, first compound 0.00316 µM): 34.6% | viability, T/C (second compound 1 µM, first compound 0.01 µM): 21.8% | viability, T/C (second compound 1 µM, first compound 0.0316 µM): 17.1% | viability, T/C (second compound 1 µM, first compound 0.1 µM): 9.67% | viability, T/C (second compound 1 µM, first compound 0.316 µM): 5.4% | viability, T/C (second compound 1 µM, first compound 1 µM): 2.49% | viability, T/C (second compound 3.16 µM, first compound 0.00316 µM): 22.5% | viability, T/C (second compound 3.16 µM, first compound 0.01 µM): 21.9% | viability, T/C (second compound 3.16 µM, first compound 0.0316 µM): 17.7% | viability, T/C (second compound 3.16 µM, first compound 0.1 µM): 7.76% | viability, T/C (second compound 3.16 µM, first compound 0.316 µM): 3.93% | viability, T/C (second compound 3.16 µM, first compound 1 µM): 2.76% | viability, T/C (second compound 10 µM, first compound 0.00316 µM): 17.4% | viability, T/C (second compound 10 µM, first compound 0.01 µM): 17.7% | viability, T/C (second compound 10 µM, first compound 0.0316 µM): 13.4% | viability, T/C (second compound 10 µM, first compound 0.1 µM): 5.23% | viability, T/C (second compound 10 µM, first compound 0.316 µM): 2.57% | viability, T/C (second compound 10 µM, first compound 1 µM): 1.62%

CC1(C)CCC(CN2CCN(c3ccc(C(=O)NS(=O)(=O)c4ccc(NCC5CCOCC5)c([N+](=O)[O-])c4)c(Oc4cnc5[nH]ccc5c4)c3)CC2)=C(c2ccc(Cl)cc2)C1
viability, T/C (compound 0.0316 µM): 124% and 120% | viability, T/C (compound 0.1 µM): 111% and 103% | viability, T/C (compound 0.316 µM): 145% and 85.5% | viability, T/C (compound 1 µM): 198% and 117% | viability, T/C (compound 3.16 µM): 221% and 138% | viability, T/C (compound 10 µM): 37.6% and 25.7% | pIC50 (curve of compound): 5.05 and 5.14

CC(C)(C)c1cnc(CSc2cnc(NC(=O)C3CCNCC3)s2)o1 + CCN1CCN(Cc2ccc(Nc3ncc(F)c(-c4cc(F)c5nc(C)n(C(C)C)c5c4)n3)nc2)CC1
pIC50 (curve of first compound, second compound 0.01 µM): 7.01 | pIC50 (curve of first compound, second compound 0.0316 µM): 7.15 | pIC50 [1]: 7.29 | pIC50 [2]: 7.44 | pIC50 [3]: 7.42 | viability, T/C (second compound 0.01 µM, first compound 0.00949 µM): 112% | viability, T/C (second compound 0.01 µM, first compound 0.03 µM): 91.9% | viability, T/C (second compound 0.01 µM, first compound 0.0949 µM): 55% | viability, T/C (second compound 0.01 µM, first compound 0.3 µM): 1.28% | viability, T/C (second compound 0.01 µM, first compound 0.949 µM): 1.21% | viability, T/C (second compound 0.01 µM, first compound 3 µM): 1.79% | viability, T/C (second compound 0.0316 µM, first compound 0.00949 µM): 92.8% | viability, T/C (second compound 0.0316 µM, first compound 0.03 µM): 102% | viability, T/C (second compound 0.0316 µM, first compound 0.0949 µM): 34.5% | viability, T/C (second compound 0.0316 µM, first compound 0.3 µM): 1.59% | viability, T/C (second compound 0.0316 µM, first compound 0.949 µM): 0.68% | viability, T/C (second compound 0.0316 µM, first compound 3 µM): 0.88% | viability, T/C (second compound 0.1 µM, first compound 0.00949 µM): 90.5% | viability, T/C (second compound 0.1 µM, first compound 0.03 µM): 69.6% | viability, T/C (second compound 0.1 µM, first compound 0.0949 µM): 27.7% | viability, T/C (second compound 0.1 µM, first compound 0.3 µM): 1.77% | viability, T/C (second compound 0.1 µM, first compound 0.949 µM): 0.43% | viability, T/C (second compound 0.1 µM, first compound 3 µM): 0.69% | viability, T/C (second compound 0.316 µM, first compound 0.00949 µM): 76% | viability, T/C (second compound 0.316 µM, first compound 0.03 µM): 57.9% | viability, T/C (second compound 0.316 µM, first compound 0.0949 µM): 11.5% | viability, T/C (second compound 0.316 µM, first compound 0.3 µM): 0.79% | viability, T/C (second compound 0.316 µM, first compound 0.949 µM): 0.67% | viability, T/C (second compound 0.316 µM, first compound 3 µM): 0.6% | viability, T/C (second compound 1 µM, first compound 0.00949 µM): 62% | viability, T/C (second compound 1 µM, first compound 0.03 µM): 63.1% | viability, T/C (second compound 1 µM, first compound 0.0949 µM): 3.89% | viability, T/C (second compound 1 µM, first compound 0.3 µM): 2.43% | viability, T/C (second compound 1 µM, first compound 0.949 µM): 1.4% | viability, T/C (second compound 1 µM, first compound 3 µM): 0.76%
